Reference: patent US10981894B2, “Melanocortin subtype-2 receptor (MC2R) antagonists and uses thereof” (Crinetics Pharmaceuticals, Inc., priority 2018, dated 2021)

Target: hMC2 receptor (Homo sapiens, UniProt Q01718)
Assay: hMC2 membrane binding assay ([125I]ACTH (1-39) Tyr23, SPA)
Design: scale not given here
Conditions: crude hMC2R membranes from CRE-bla-CHO-K1 cells expressing hMC2 receptor and hMRAP; [125I]ACTH (1-39) Tyr23 0.2 nM; 1.5 hours at room temperature; read-out: MC2R binding potency
How it was run: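 Ki comes from non-linear regression of SPA scintillation counts. Displacement of 0.2 nM [125I]ACTH(1-39) Tyr23 by compound dose series (usually 0–10,000 nM final) ran 1.5 h at room temperature. Membranes came from CHO-K1 CRE-bla cells stably expressing hMC2R plus hMRAP, bead-coupled in pH 7.4 buffer with 0.2% BSA.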

Chain of hMC2 receptor (Q01718 whole entry): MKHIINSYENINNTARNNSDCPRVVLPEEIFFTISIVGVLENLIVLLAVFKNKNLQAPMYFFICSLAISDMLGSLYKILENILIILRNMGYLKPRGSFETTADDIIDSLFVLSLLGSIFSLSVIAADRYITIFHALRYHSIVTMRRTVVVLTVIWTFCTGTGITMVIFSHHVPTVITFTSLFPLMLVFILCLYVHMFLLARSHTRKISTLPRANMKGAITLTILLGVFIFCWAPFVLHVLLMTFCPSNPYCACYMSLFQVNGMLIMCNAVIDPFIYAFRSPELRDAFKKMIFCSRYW
Chain of hMC2 receptor (Q8TCY5 whole entry partner): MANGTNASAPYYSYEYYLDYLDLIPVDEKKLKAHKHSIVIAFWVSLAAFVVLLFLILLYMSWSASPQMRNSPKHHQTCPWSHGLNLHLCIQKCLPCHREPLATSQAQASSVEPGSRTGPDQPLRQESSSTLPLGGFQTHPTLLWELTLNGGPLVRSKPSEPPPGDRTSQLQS

Ki	Compound
< 10 nM	CCOc1ncccc1-c1ccc(N2CCN(C(=O)C3(C(F)(F)F)CCCC3)C[C@H]2CC)c(C(=O)NCC2CN(C)C2)n1 [Compound 1-313, 2′-ethoxy-5-[(2R)-2-ethyl-4-[1-(trifluoromethyl)cyclopentanecarbonyl]piperazin-1-yl]-N-[(1-methylazetidin-3-yl)methyl]-[2,3′-bipyridine]-6-carboxamide]
< 10 nM	CCOc1ncccc1-c1ccc(N2CCN(C(=O)C3(C(F)(F)F)CCCC3)C[C@H]2CC)c(C(=O)NC2CN(C)C2)n1 [Compound 1-241, 2′-ethoxy-5-[(2R)-2-ethyl-4-[1-(trifluoromethyl)cyclopentanecarbonyl]piperazin-1-yl]-N-(1-methylazetidin-3-yl)-[2,3′-bipyridine]-6-carboxamide]
< 10 nM	CCOc1ncccc1-c1ccc(N2CCN(C(=O)C3CCc4cccc(Cl)c43)C[C@H]2CC)c(C(=O)N[C@@H]2CCN(C)C2)n1 (stereo partly drawn) [Compound 1-382, 5-[(2R)-4-(7-chloro-2,3-dihydro-1H-indene-1-carbonyl)-2-ethylpiperazin-1-yl]-2′-ethoxy-N-[(3R)-1-methylpyrrolidin-3-yl]-[2,3′-bipyridine]-6-carboxamide]
< 10 nM	CCOc1ncccc1-c1ccc(N2CCN(C(=O)c3ccc(F)cc3C(F)(F)F)C[C@H]2CC)c(C(=O)NCCNC)c1F [Compound 1-114, 3-(2-ethoxypyridin-3-yl)-6-[(2R)-2-ethyl-4-[4-fluoro-2-(trifluoromethyl)benzoyl]piperazin-1-yl]-2-fluoro-N-[2-(methylamino)ethyl]benzamide]
< 10 nM	CCOc1ncccc1-c1ccc(N2CCN(C(=O)C3(C(F)(F)F)CCCC3)C[C@H]2CC)c(C(=O)NCC2(OC)CN(C)C2)n1 [Compound 1-334, 2′-ethoxy-5-[(2R)-2-ethyl-4-[1-(trifluoromethyl)cyclopentanecarbonyl]piperazin-1-yl]-N-[(3-methoxy-1-methylazetidin-3-yl)methyl]-[2,3′-bipyridine]-6-carboxamide]
< 10 nM	CCOc1ncccc1-c1ccc(N2CCN(C(=O)c3ccc(Cl)cc3C(F)(F)F)C[C@H]2CC)c(C(=O)NCCC2=NCCN2)c1F [Compound 1-219, 6-[(2R)-4-[4-chloro-2-(trifluoromethyl)benzoyl]-2-ethylpiperazin-1-yl]-N-[2-(4,5-dihydro-1H-imidazol-2-yl)ethyl]-3-(2-ethoxypyridin-3-yl)-2-fluorobenzamide]
< 10 nM	CCOc1ccccc1-c1ccc(N2CCN(C(=O)c3c(F)cc(C)cc3-c3ccc(CN)cc3)C[C@H]2CC)c(C(=O)NCCN)c1 [Compound 1-27, N-(2-aminoethyl)-4-[(2R)-4-[4′-(aminomethyl)-3-fluoro-5-methyl-[1,1′-biphenyl]-2-carbonyl]-2-ethylpiperazin-1-yl]-2′-ethoxy-[1,1′-biphenyl]-3-carboxamide]
< 10 nM	CCOc1ncccc1-c1ccc(N2CCN(C(=O)c3ccc(Cl)cc3C(F)(F)F)C[C@H]2CC)c(C(=O)N[C@H]2CCN(C)C2)c1F [Compound 1-201, 6-[(2R)-4-[4-chloro-2-(trifluoromethyl)benzoyl]-2-ethylpiperazin-1-yl]-3-(2-ethoxypyridin-3-yl)-2-fluoro-N-[(3S)-1-methylpyrrolidin-3-yl]benzamide]
< 10 nM	CCOc1ncccc1-c1ccc(N2CCN(C(=O)c3ccc(Cl)cc3C#N)C[C@H]2CC)c(C(=O)NCCN)c1 [Compound 1-117, N-(2-aminoethyl)-2-[(2R)-4-(4-chloro-2-cyanobenzoyl)-2-ethylpiperazin-1-yl]-5-(2-ethoxypyridin-3-yl)benzamide]

Compound	Ki
CCOc1ncccc1-c1ccc(N2CCN(C(=O)C3(C(F)(F)F)CCCC3)C[C@H]2CC)c(C(=O)N[C@@H]2CN3CCC2CC3)n1 [Compound 1-400, N-[(3S)-1-azabicyclo[2.2.2]octan-3-yl]-2′-ethoxy-5-[(2R)-2-ethyl-4-[1-(trifluoromethyl)cyclopentanecarbonyl]piperazin-1-yl]-[2,3′-bipyridine]-6-carboxamide]	< 10 nM
